From patent publication US10682371B2, “Small molecule conjugates specifically activated in tumor microenvironment for targeting and use thereof” (priority 2014, dated 2020)
Like-named read-outs stand apart in the source and are kept apart here.

What was measured:
[1] = system: Human chronic leukemia K562 tumor tissue homogenate; type: biochemical; conditions: Human chronic leukemia K562
How it was run: (§1)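 Protease activation of compounds was measured in acidized tissue homogenates at 37° C, using 1 mg/ml compound per 100 μg homogenate.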

[2] = system: Human liver cancer Hepg2 tumor tissue homogenate; type: biochemical; conditions: Human liver cancer Hepg2
How it was run: as §1

[3] = system: Human prostate cancer PC-3 tumor tissue homogenate; type: biochemical; conditions: Human prostate cancer PC-3
How it was run: as §1

[4] = system: Human ovarian cancer SK-OV-3 tumor tissue homogenate; type: biochemical; conditions: Human ovarian cancer SK-OV-3
How it was run: as §1

[5] = system: Human pancreatic cancer Panc-1 tumor tissue homogenate; type: biochemical; conditions: Human pancreatic cancer Panc-1
How it was run: as §1

[6] = system: Human renal cancer OS-RC-2 tumor tissue homogenate; type: biochemical; conditions: Human renal cancer OS-RC-2
How it was run: as §1

[7] = system: Human colon cancer HT-29 tumor tissue homogenate; type: biochemical; conditions: Human colon cancer HT-29
How it was run: as §1

[8] = system: Human non-small cell lung cancer A549 tumor tissue homogenate; type: biochemical; conditions: Human non-small cell lung cancer A549
How it was run: as §1

[9] = system: Human heart; type: biochemical; conditions: Human heart, 1 mg/ml
[10] = system: tumor CD8+ T cells; type: in vivo, C57 mice; conditions: CD8 positive cells in CD45 positive cells of tumor
How it was run: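 Tumour tissue homogenised and single cells filtered, washed, then stained 1 h at ambient temperature with CD45-PE and CD8-FITC antibodies. After washes in PBS with 1% FBS, flow cytometry gave the fraction of CD8⁺ cells among CD45⁺ leucocytes.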

[11] = system: Human breast cancer MDA-MB435 tumor tissue homogenate; type: biochemical; conditions: for Activation ratio (%) in homogenates from different tumor tissues: Human breast cancer MDA-MB435
How it was run: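 Compounds at 1 mg/ml incubated at 37° C. with 100 μg acidified (pH6.0) MDA-MB435 human breast tumor tissue homogenate, as a source of proteases for compound activation.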

[12] = system: D121 lung tumor cells; type: in vivo, C57 mice; conditions: for Size of tumor (mm^3) Day 18 / inhibitory rate on tumor % Day 18: drugs weekly for 4 weeks; for Treatment effects on C57 mice, in words: compared to the control group and the other treatment groups
How it was run: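 Endpoint is tumor inhibition rate from tumor size (mm^3) after weekly drug treatment for 4 weeks, begun once s.c. tumors from 10^6 live D121 cells reached 0.3-0.4 cm. Before challenge, C57 mice received three i.p. doses of 5×10^5 irradiated D121 cells, two weeks apart, or saline.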

[13] = 100 μg acidized homogenate pH6.0, 1 mg/ml, 37°
[14] = D121 immunized C57 mice (Example 23)
[15] = D121 immunized C57 mice, Day 18 (Example 23)
[16] = 1 mg/ml, acidized homogenate pH6.0, Paclitaxel release by HPLC
[17] = acidized homogenate pH6.0, Paclitaxel release by HPLC
[18] = Table 27, flow cytometry, immunized C57 mice, D121
[19] = Table 27, immunized C57 mice, D121 lung tumor, Day 18

Row | SMILES | Activation ratio (%) in homogenates from different tumor tissues [1, 13] [%] | Activation ratio (%) in homogenates from different tumor tissues [2, 13] [%] | Activation ratio (%) in homogenates from different tumor tissues [3, 13] [%] | Activation ratio (%) in homogenates from different tumor tissues [4, 13] [%] | Activation ratio (%) in homogenates from different tumor tissues [5, 13] [%] | Activation ratio (%) in homogenates from different tumor tissues [6, 13] [%] | Activation ratio (%) in homogenates from different tumor tissues [7, 13] [%] | Activation ratio (%) in homogenates from different tumor tissues [8, 13] [%] | Activation ratio (%) in homogenates from different tumor tissues ([9]; 37°) | CD8: CD45 (%) [10, 14] [%] | Activation ratio (%) in homogenates from different tumor tissues [11, 13] [%] | Size of tumor (mm^3) Day 18 [12, 15] [mm^3] | inhibitory rate on tumor % Day 18 [12, 15] [%] | Treatment effects on C57 mice, in words [12] | Activation ratio (%) in homogenates from different tumor tissues [1, 16] [%] | Activation ratio (%) in homogenates from different tumor tissues [2, 16] [%] | Activation ratio (%) in homogenates from different tumor tissues [3, 16] [%] | Activation ratio (%) in homogenates from different tumor tissues [4, 16] [%] | Activation ratio (%) in homogenates from different tumor tissues [5, 16] [%] | Activation ratio (%) in homogenates from different tumor tissues [6, 16] [%] | further results
1 | COCCOCC(=O)N[C@H](C)C(=O)N[C@H](C)C(=O)N[C@H](CC(N)=O)C(=O)Nc1ccc(COC(=O)OC(C(=O)OC2C[C@@]3(O)C(OC(=O)c4ccccc4)[C@@H]4C5(OC(C)=O)COC5C[C@H](O)[C@@]4(C)C(=O)[C@H](OC(C)=O)C(=C2C)C3(C)C)[C@@H](NC(=O)c2ccccc2)c2ccccc2)cc1 (stereo in doubt) [S1′, 2-(2-methoxyethoxy) acetylamino-L-Ala-L-Ala-L-Asn-p-amino-benzyl-paclitaxel] | 64.7 | 95.3 | 97.3 | 88.4 | 94.8 | 86.4 | 79.4 | 86.4 | none | 19.6 | 92.3 | 237.60 ± 156.42 | 84.9 | greatly improved |  |  |  |  |  |  | activation efficiency (%) ([11]; human breast cancer (MDA-MB435) tumor tissue homogenates pH6.0, 100 μg, 1 mg/ml, control compounds vs S1′-S4′): 94.3%; Effect together with PDL1-antibody in promoting immunization and treatment, in words ([12]; combination with PDL1-antibody): excellent synergistic effect
2 | COCCOCCOCCOCCOCCOCCOCCOCCOCCOCCOCCOCC(=O)NCCCC[C@H](NC(=O)COCCOCCOCCOCCOCCOCCOCCOCCOCCOCCOCCOC)C(=O)N[C@H](C)C(=O)N[C@H](C)C(=O)N[C@H](CC(N)=O)C(=O)Nc1ccc(COC(=O)OC(C(=O)OC2C[C@@]3(O)[C@@H](OC(=O)c4ccccc4)[C@H]4[C@](C)(C(=O)[C@H](OC(C)=O)C(=C2C)C3(C)C)[C@@H](O)CC2OC[C@]24OC(C)=O)[C@@H](NC(=O)c2ccccc2)c2ccccc2)cc1 (some centres unmarked) [Compound A3] |  |  |  |  |  |  |  |  |  |  |  |  |  | greatly improved | 73.2 | 86.5 | 99.3 | 82.8 | 94.5 | 89.4 | Activation ratio (%) in homogenates from different tumor tissues [7, 16]: 94.6%; Activation ratio (%) in homogenates from different tumor tissues [8, 16]: 84.4%; Activation ratio (%) in homogenates from different tumor tissues [9, 17]: none; CD8: CD45 (%) [10, 18]: 17.3%; Activation ratio (%) in homogenates from different tumor tissues [11, 16]: 93.4%; activation efficiency (%) ([11]; Table 24, acidized human breast cancer (MDA-MB435) tumor tissue homogenates pH6.0, 1 mg/ml, Paclitaxel release by HPLC): 94.5%; Size of tumor (mm^3) Day 18 [12, 19]: 360.393 ± 312.7 mm^3; inhibitory rate on tumor % Day 18 [12, 19]: 78.65%
3 | COCCOCCOCCOCCOCCOCC(=O)N[C@H](C)C(=O)N[C@H](C)C(=O)N[C@H](CC(N)=O)C(=O)Nc1ccc(COC(=O)OC(C(=O)OC2C[C@@]3(O)[C@@H](OC(=O)c4ccccc4)[C@H]4[C@](C)(C(=O)[C@H](OC(C)=O)C(=C2C)C3(C)C)[C@@H](O)CC2OC[C@]24OC(C)=O)[C@@H](NC(=O)c2ccccc2)c2ccccc2)cc1 (some centres unmarked) [S2′] | 73.3 | 84.6 | 98.4 | 84.6 | 93.8 | 91.5 | 89.9 | 89.4 | none | 18.1 | 91.4 | 331.57 ± 114.74 | 78.9 | greatly improved |  |  |  |  |  |  | 
4 | COCCOCCOCCOCCOCCOCC(=O)NCCCC[C@H](NC(=O)COCCOCCOCCOCCOCCOC)C(=O)N[C@H](C)C(=O)N[C@H](C)C(=O)N[C@H](CC(N)=O)C(=O)Nc1ccc(COC(=O)OC(C(=O)OC2C[C@@]3(O)[C@@H](OC(=O)c4ccccc4)[C@H]4[C@](C)(C(=O)[C@H](OC(C)=O)C(=C2C)C3(C)C)[C@@H](O)CC2OC[C@]24OC(C)=O)[C@@H](NC(=O)c2ccccc2)c2ccccc2)cc1 (some centres unmarked) [Compound A2] |  |  |  |  |  |  |  |  |  |  |  |  |  | greatly improved | 76.3 | 87.6 | 101.4 | 88.6 | 93.8 | 94.5 | Activation ratio (%) in homogenates from different tumor tissues [7, 16]: 92.9%; Activation ratio (%) in homogenates from different tumor tissues [8, 16]: 92.4%; Activation ratio (%) in homogenates from different tumor tissues [9, 17]: none; CD8: CD45 (%) [10, 18]: 19.4%; Activation ratio (%) in homogenates from different tumor tissues [11, 16]: 94.4%; Size of tumor (mm^3) Day 18 [12, 19]: 375.727 ± 247.3 mm^3; inhibitory rate on tumor % Day 18 [12, 19]: 77.74%
